Reference: ChEMBL document CHEMBL1201862, “PubChem BioAssay data set” (2004)
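Briefly, cells in 96-well plates were exposed to five compound concentrations for 48 h, and endpoints were estimated by linear interpolation. GI50 is the concentration that inhibits growth by half.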 Active and inactive are the calls of the source. Rule as the data show it: active = GI50 up to about 1.1 µM and inactive = higher.

Legend:
Assay in all cases: inhibition of tumour cell growth, NCI panel, 48 h
HT-29 = system: HT-29
HOP-92 = system: HOP-92
LOX IMVI = system: LOX IMVI
K562 = system: K562
CCRF-CEM = system: CCRF-CEM
SF-268 = system: SF-268
T47D = system: T47D
OVCAR-8 = system: OVCAR-8
MOLT-4 = system: MOLT-4
MCF7 = system: MCF7
SK-OV-3 = system: SK-OV-3
SF-295 = system: SF-295
OVCAR-4 = system: OVCAR-4
HCT-15 = system: HCT-15
RPMI-8226 = system: RPMI-8226
SN12C = system: SN12C
EKVX = system: EKVX
HOP-62 = system: HOP-62
MDA-MB-231 = system: MDA-MB-231
SF-539 = system: SF-539

SMILES	GI50 (HT-29)	GI50 (HOP-92)	GI50 (LOX IMVI)	GI50 (K562)	GI50 (CCRF-CEM)	GI50 (SF-268)	GI50 (T47D)	GI50 (OVCAR-8)	GI50 (MOLT-4)	GI50 (MCF7)	GI50 (SK-OV-3)	GI50 (SF-295)	GI50 (OVCAR-4)	GI50 (HCT-15)	GI50 (RPMI-8226)	GI50 (SN12C)	GI50 (EKVX)	GI50 (HOP-62)	GI50 (MDA-MB-231)	GI50 (SF-539)
N/C(=N\O)NCCN1CCCCCCC1	> 100 µM (inactive)	> 100 µM (inactive)	> 100 µM (inactive)	> 100 µM (inactive)	> 100 µM (inactive)	> 100 µM (inactive)	80.9 µM (inactive)	42 µM (inactive)	> 100 µM (inactive)	26.5 µM (inactive)	> 100 µM (inactive)	> 100 µM (inactive)	> 100 µM (inactive)	> 100 µM	> 100 µM (inactive)	37.2 µM (inactive)	> 100 µM (inactive)	> 100 µM (inactive)	> 100 µM (inactive)	> 100 µM (inactive)
COc1cc2cc(C(=O)N3CC(CCl)c4ccccc43)[nH]c2c(OC)c1OC (stereo not given)	26.8 µM (inactive)	> 100 µM (inactive)	44.8 µM (inactive)	3.1 µM (inactive)	> 36.6 µM (inactive)	> 100 µM (inactive)	13.8 µM (inactive)	81.8 µM (inactive)	13.4 µM (inactive)	32.2 µM (inactive)	> 100 µM (inactive)	70.3 µM (inactive)	> 94.4 µM (inactive)	24.1 µM	10.6 µM (inactive)	5.6 µM (inactive)	> 66.1 µM (inactive)	> 56.2 µM (inactive)	> 100 µM (inactive)	> 100 µM (inactive)
C=C1CC2(OC1=O)c1ccccc1C=Cc1ccccc12	2.44 µM (inactive)	1.61 µM (inactive)	1.38 µM (inactive)	1.2 µM (inactive)	0.697 µM (active)	7.23 µM (inactive)	1.93 µM (inactive)	5.21 µM (inactive)	1.81 µM (inactive)	2.3 µM (inactive)	16.9 µM (inactive)	18 µM (inactive)	4.4 µM (inactive)	3.25 µM	1.42 µM (inactive)	2.66 µM (inactive)	8.85 µM (inactive)	12.6 µM (inactive)	2.26 µM (inactive)	2.83 µM (inactive)
